Experimental data published in patent publication US11124516B2, “Pyrrolo[1,2-A]pyrimidinyl carboxamide compounds and their use in the treatment of medical disorders” (Bial—Biotech Investments, Inc., priority 2016, dated 2021).
In brackets after ≈: the same amount, converted by molar mass.

Key:
[1] = molecular target: T1, glucocerebrosidase (Gcase) (Homo sapiens, UniProt P04062); assay: Glucocerebrosidase (Gcase) activation assay, 4-methylumbelliferyl-beta-D-glucopyranoside substrate, fluorescence; type: biochemical; conditions: 10 nM GCase, 100 nM saposin C; for activation at 0.1 µM / activation at 1 µM: 0.25 h; for activation at 0.1 µM: pH 4.7, test compound at 0.1 μM, read-out: Percent Gcase Activation 0.1 μM Test Compound; for activation at 1 µM: pH 4.7, test compound at 1.0 μM, read-out: Percent Gcase Activation 1 μM Test Compound
T1 sequence (P04062 40-536): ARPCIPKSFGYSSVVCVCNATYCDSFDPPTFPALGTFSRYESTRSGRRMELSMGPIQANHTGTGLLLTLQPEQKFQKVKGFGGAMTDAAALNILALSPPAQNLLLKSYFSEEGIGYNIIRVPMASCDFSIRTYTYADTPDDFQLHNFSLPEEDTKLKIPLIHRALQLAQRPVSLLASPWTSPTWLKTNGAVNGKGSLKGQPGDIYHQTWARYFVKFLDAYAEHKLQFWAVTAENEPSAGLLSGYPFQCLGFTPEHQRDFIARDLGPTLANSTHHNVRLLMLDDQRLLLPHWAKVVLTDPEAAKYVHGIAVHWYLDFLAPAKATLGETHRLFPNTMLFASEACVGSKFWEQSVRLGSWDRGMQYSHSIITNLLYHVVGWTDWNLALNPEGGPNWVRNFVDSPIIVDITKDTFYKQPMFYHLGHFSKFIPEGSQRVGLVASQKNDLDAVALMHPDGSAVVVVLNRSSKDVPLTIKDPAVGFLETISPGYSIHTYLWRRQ
Method in brief: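 10 nM GCase with 100 nM saposin C in Triton/phosphatidylserine micelles (citrate-phosphate, pH 4.7), pre-incubated 30 min at room temperature with compound, then 2 mM 4-methylumbelliferyl-β-D-glucoside stock mixed 1:1; 15 min reaction, stopped with glycine pH 12.5, fluorescence at 365/440 nm. Activation scored at 1.0 and 0.1 μM; 8-point curves from 5 μM top.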

[2] = Compound solubility in water; type: physicochemical

SMILES | Percent Gcase Activation 1 μM Test Compound ([1]; test compound at 1.0 μM, pH 4.7) | solubility [2] [µg/mL] | activation at 0.1 µM [1] [%] | activation at 1 µM [1] [%] | Percent Gcase Activation 0.1 μM Test Compound ([1]; test compound at 0.1 μM, pH 4.7)
Cc1cc(C)n2ccc(C(=O)NC(C)(C)c3cccc(Cl)c3)c2n1 [IV-40] | +++ (Gcase activation greater than 60%) | 1.5 (≈ 4.39 µM) |  |  | ** (Gcase activation in the range of 10% up to 20%)
Cc1cc(C)n2ccc(C(=O)NC(C)c3cn(C)c4ccccc34)c2n1 (stereo not drawn) [IV-49] |  | 2.1 (≈ 6.06 µM) | 10 to 20 | > 60 | 
CCCO[C@H]1CC[C@H](NC(=O)c2ccn3c(C)cc(C(F)F)nc23)CC1 [IV-12] |  | 18.5 (≈ 50.6 µM) | 10 to 20 | > 60 | 
Cc1cc(C)n2ccc(C(=O)NC(C)c3cccc4c3OCCCO4)c2n1 (stereo not drawn) [IV-53] |  | 5.1 (≈ 14 µM) | 10 to 20 | > 60 | 
Cc1cc(C(F)F)n2ccc(C(=O)N[C@H]3CC[C@H](OCC(C)C)CC3)c2n1 [IV-9] |  | 1.5 (≈ 3.95 µM) | > 20 | > 60 | 
Cc1cc(C)n2ccc(C(=O)N[C@@H](C)c3ccccc3F)c2n1 [IV-20] |  | 2.5 (≈ 8.03 µM) | > 20 | > 60 | 
Cc1cc(C)n2ccc(C(=O)NC(C)c3ccc4ccccc4c3)c2n1 (stereo not drawn) [IV-31] |  | 0.2 (≈ 0.582 µM) | > 20 | > 60 | 
COc1ccccc1[C@@H](C)NC(=O)c1ccn2c(C)cc(C)nc12 [IV-29] |  | 2.3 (≈ 7.11 µM) | 10 to 20 | > 60 | 
Cc1cc(C(F)F)nc2c(C(=O)N[C@H]3CC[C@H](OCC(C)(C)C)CC3)ccn12 [IV-14] |  | 0.8 (≈ 2.03 µM) | > 20 | > 60 | 
Cc1cc(C)n2ccc(C(=O)NC(C)C3(c4ccccc4)CCCC3)c2n1 (stereo not drawn) [IV-73] |  | 1.5 (≈ 4.15 µM) | > 20 | > 60 | 
Cc1cc(C)n2ccc(C(=O)NC(CC3CCC3)c3ccccc3)c2n1 (stereo not drawn) [IV-41] |  | 0.5 (≈ 1.44 µM) | > 20 | > 60 | 
Cc1cc(C)n2ccc(C(=O)N[C@@H](C)c3ccc(F)cc3)c2n1 [IV-21] |  | 3.3 (≈ 10.6 µM) | > 20 | > 60 | 
Cc1cc(C(F)F)nc2c(C(=O)N[C@H]3CC[C@H](OCC(C)C)CC3)ccn12 [IV-13] |  | 5 (≈ 13.2 µM) | > 20 | > 60 | 
Cc1cc(C)n2ccc(C(=O)N[C@H](C)c3ccc(Cl)cc3)c2n1 [IV-25] |  | 0.6 (≈ 1.83 µM) | > 20 | > 60 | 
CCc1ccc(C(C)NC(=O)c2ccn3c(C)cc(C)nc23)cc1 (stereo not drawn) [IV-44] |  | 2 (≈ 6.22 µM) | > 20 | > 60 | 
CCCO[C@H]1CC[C@H](NC(=O)c2ccn3c(C(F)F)cc(C)nc23)CC1 [IV-11] |  | 9 (≈ 24.6 µM) | > 20 | > 60 | 
Cc1ccc([C@H](C)NC(=O)c2ccn3c(C)cc(C)nc23)cc1 [IV-30] |  | 2.6 (≈ 8.46 µM) | 10 to 20 | > 60 | 
COc1cccc([C@@H](C)NC(=O)c2ccn3c(C)cc(C)nc23)c1 [IV-32] |  | 7.8 (≈ 24.1 µM) | 10 to 20 | > 60 | 
COC1CCC(Nc2cc(C)n3ccc(C(=O)NC(C)(C)C4CC4)c3n2)CC1 (stereo not drawn) [II1-37] |  | 10.2 (≈ 26.5 µM) | < 10 | 30 to 60 | 

Continued, in another order:

Percent Gcase Activation 1 μM Test Compound ([1]; test compound at 1.0 μM, pH 4.7) | solubility [2] [µg/mL] | activation at 0.1 µM [1] [%] | activation at 1 µM [1] [%] | SMILES | Percent Gcase Activation 0.1 μM Test Compound ([1]; test compound at 0.1 μM, pH 4.7)
 | 3.4 (≈ 10.1 µM) | 10 to 20 | > 60 | Cc1cc(-c2cncnc2)nc2c(C(=O)NC(C)(C)C3CC3)ccn12 [III-42] | 
 | 3.8 (≈ 11.3 µM) | > 20 | > 60 | COCc1cc(C(F)F)nc2c(C(=O)NC(C)(C)C3CC3)ccn12 [III-3] | 
 | 0.9 (≈ 3.03 µM) | 10 to 20 | > 60 | Cc1c2c(nc3c(C(=O)NC(C)(C)C4CC4)ccn13)CCC2 [III-73] | 
 | 0.7 (≈ 2.07 µM) | < 10 | 30 to 60 | Cc1cc(-c2ccc(F)cc2)n2ccc(C(=O)N[C@@H](C)C3CC3)c2n1 [III-31] | 
 | 1.9 (≈ 4.67 µM) | > 20 | > 60 | Cc1cc(-c2cccnc2)nc2c(C(=O)N[C@H]3CC[C@H](OCC(C)C)CC3)ccn12 [III-58] | 
 | 8 (≈ 21.7 µM) | < 10 | 30 to 60 | Cc1c2c(nc3c(C(=O)N[C@H]4CC[C@H](OC(C)(C)C)CC4)ccn13)CCC2 [III-71] | 
 | 18.7 (≈ 68.9 µM) | > 20 | > 60 | Cc1cc(C)n2ccc(C(=O)NC(C)(C)C3CC3)c2n1 [III-23] | 
 | 20.7 (≈ 80.4 µM) | < 10 | 30 to 60 | Cc1cc(C)n2ccc(C(=O)N[C@H](C)C3CC3)c2n1 [III-65] | 
 | 17 (≈ 50.4 µM) | > 20 | > 60 | COCc1cc(C(F)F)n2ccc(C(=O)NC(C)(C)C3CC3)c2n1 [III-4] | 
 | 8.6 (≈ 31.7 µM) | 10 to 20 | > 60 | Cc1cc(C)n2c(C)cc(C(=O)N[C@@H](C)C3CC3)c2n1 [III-26] | 
 | 9.5 (≈ 32.4 µM) | > 20 | > 60 | Cc1cc(C(F)F)nc2c(C(=O)N[C@@H](C)C3CC3)ccn12 [III-7] | 
 | 13.7 (≈ 42.4 µM) | < 10 | > 60 | COCC(NC(=O)c1ccn2c(C)cc(C)nc12)c1ccccc1 (stereo not drawn) [III-20] | 
 | 21.7 (≈ 84.3 µM) | > 20 | > 60 | Cc1cc(C)n2ccc(C(=O)N[C@@H](C)C3CC3)c2n1 [III-64] | 
 | 1.7 (≈ 4.84 µM) | < 10 | < 30 | Cc1nc2c(C(=O)N[C@@H](C)C3CC3)ccn2c(C)c1-c1ccc(F)cc1 [III-52] | 
